A short description of experiment [1]: Competitive inhibition of bovine liver cytosolic beta-glucosidase using beta-D-glycopyranoside as substrate after 10 to 30 mins by Lineweaver-Burk plot analysis. More on the design: species or system Bos taurus.
Experiment [2] is described as follows: Competitive inhibition of baker's yeast alpha-glucosidase using alpha-D-glycopyranoside as substrate after 10 to 30 mins by Lineweaver-Burk plot analysis. More on the design: species or system Saccharomyces cerevisiae.
Experiment [3] is described as follows: Competitive inhibition of Aspergillus niger amyloglucosidase after 10 to 30 mins by Lineweaver-Burk plot analysis.
The nature of experiment [4]: Competitive inhibition of baker's yeast isomaltase after 10 to 30 mins by Lineweaver-Burk plot analysis. The arrangement: species or system Saccharomyces cerevisiae.
Experiment [5] is described as follows: Competitive inhibition of almond beta-glucosidase using beta-D-glycopyranoside as substrate after 10 to 30 mins by Lineweaver-Burk plot analysis. The arrangement: species or system Prunus dulcis.

Usually Ki stands for a measure of affinity in units of concentration, obtained from inhibition or displacement. Read a low Ki as a stronger hold on the target.

On to `CCCC/N=C1/SC[C@@H]2[C@H](O)[C@H](O)CN12`, for which the inhibition constant (Ki) in experiment [1] was 76 µM; in experiment [2], 183 µM; in experiment [3], 419 µM; in experiment [4], 50 µM; in experiment [5] it was 6.5 µM.

As for `CC(=O)OCCCCCCCCCCCCCCCCNC(=S)N1C[C@@H](O)[C@H](O)[C@H]1CO`, the Ki in experiment [1] worked out at 36 µM; in experiment [2], 93 µM; in experiment [3], 202 µM; in experiment [4] it was 13 µM; in experiment [5] it was 277 µM.

As to `OCCCCCCCCCCCCCCCCNC(=S)N1C[C@@H](O)[C@H](O)[C@H]1CO`, the Ki stood at 40 µM in experiment [1], 280 µM in experiment [4] and 144 µM in experiment [5].

For `CCCC/N=C1/SC[C@H]2[C@H](O)[C@@H](O)CN12`, the Ki in experiment [1] was 53 µM; in experiment [3], 236 µM; in experiment [4] it was 235 µM; in experiment [5], 1.9 µM.

Consider `CCCCNC(=S)N1CC[C@@H](O)[C@H](O)[C@H]1CO`, for which the Ki in experiment [1] turned out to be 565 µM; in experiment [3] it was 93 µM; in experiment [4], 429 µM; in experiment [5] it was 149 µM.

For the molecule `OCCCCCCCCCCCCCCCCNC(=S)N1CC[C@@H](O)[C@H](O)[C@H]1CO`, the results for the inhibitory constant (Ki) in experiment [1], in experiment [3] and in experiment [5] were 16 µM, 25 µM and 437 µM, respectively.

In the case of `OC[C@H]1NC[C@@H](O)[C@@H]1O`, the Ki was 572 µM in experiment [1]; 0.17 µM in experiment [2]; 4.4 µM in experiment [3]; 5.9 µM in experiment [4]; 35 µM in experiment [5].

Consider `CC(=O)OCCCCCCCCCCCCCCCCNC(=S)N1C[C@H](O)[C@@H](O)[C@@H]1CO`, for which the Ki turned out to be 77 µM in experiment [1], 526 µM in experiment [2], 431 µM in experiment [4] and 353 µM in experiment [5].

As for `CCCC/N=C1/SC[C@@H]2[C@@H](O)[C@H](O)CCN12`, the results for the Ki in experiment [1], in experiment [4] and in experiment [5] were 154 µM, 440 µM and 14 µM, respectively.

Take `CCCCNC(=S)N1C[C@H](O)[C@@H](O)[C@@H]1CO`: the values for the Ki in experiment [1] and in experiment [5] were 54 µM and 76 µM, respectively.

Consider `OC[C@H]1NCC[C@H](O)[C@@H]1O`, for which the Ki in experiment [1] was 39 µM; in experiment [3], 4.8 µM; in experiment [4], 70 µM.

`OCCCCCCCCCCCCCCCCNC(=S)N1C[C@H](O)[C@@H](O)[C@@H]1CO`: the figures for the Ki in experiment [1], in experiment [2] and in experiment [4] were 20 µM, 975 µM and 239 µM, respectively.

As to `CC(=O)OCCCCCCCCCCCCCCCCNC(=S)N1CC[C@@H](O)[C@H](O)[C@H]1CO`, the results for the Ki in experiment [1] and in experiment [3] were 12 µM and 56 µM, respectively.

As for `CCCCNC(=S)N1C[C@@H](O)[C@H](O)[C@H]1CO`, the Ki in experiment [1] was 0.96 to 87 µM; in experiment [2] it was 69 µM; in experiment [3], 116 µM; in experiment [4] it was 19 µM; in experiment [5], 25 µM.

The values are drawn from ChEMBL document CHEMBL3861951, “Inhibitor versus chaperone behaviour of d-fagomine, DAB and LAB sp(2)-iminosugar conjugates against glycosidases: A structure-activity relationship study in Gaucher fibroblasts” (Eur J Med Chem, 2016).
